In ChEMBL document CHEMBL1147328, “13C-NMR assignments and cytotoxicity assessment of zoanthoxanthin alkaloids from zoanthid corals” (J Nat Prod, 1993):
In brackets after ≈: the same amount, converted by molar mass.

Experiments:
Format in all cases: functional, cell-based
[1] = test system: A549; assay: Cytotoxicity against human A549 cells
[2] = test system: P388; assay: Cytotoxicity against mouse P388 cells
[3] = test system: HT-29; assay: Cytotoxicity against human HT-29 cells
[4] = test system: HCT-8; assay: Cytotoxicity against human HCT8 cells

## CNc1nc2c(C)ccc3nc(N(C)C)nc-3c2n1C
[1]
  IC50: 2.38 µg/mL (≈ 8.8 µM)
[2]
  IC50: 1.77 µg/mL (≈ 6.55 µM)
[3]
  IC50: 0.824 µg/mL (≈ 3.05 µM)
[4]
  IC50: 1.61 µg/mL (≈ 5.96 µM)
